According to patent US12145899B2, “Deuterated analogs of acetyl-leucine” (INTRABIO LTD., priority 2018, dated 2024):

Experiments:
[1] = tested on: NPC CHO cells; assay: NPC cellular phenotype assay: lysosomal volume by LysoTracker flow cytometry; format: cell-based, Chinese Hamster; details: for LysoTracker fluorescence, fold change relative to untreated samples (normalised as 1.0): NPC CHO cells, treated 7 days, Mean±SD, n=3, concentration of the compared values not printed in the legend (b616 names 1 mM)
Method: FIG. 1 is a line graph showing the effect of acetyl-leucine (referred to as IB1000) and acetyl-leucine-2,3,3,4-d4 (referred to as DIB1000) in a NPC cellular phenotype assay. NPC CHO cells were treated with 1, 10, 100, 1000, and 5000 μM of acetyl-leucine or acetyl-leucine-2,3,3,4-d4 for 7 days. Data shown is Mean±SD of 1-3 biological repeats. LysoTracker fluorescence is expressed as fold change relative to responses obtained from untreated samples (normalised as 1.0). Acetyl-leucine; 0.79±0.05, Acetyl-leucine-2,3,3,4-d4; 0.45±0.03, unpaired t test, Two-tailed test, **p<0.01, n=3. The technique applied in the present study is described in te Vruchte et al., J. Clin. Invest. 3:1320-1328 (2014). Briefly, human fibroblasts from patients with Tay-Sachs Disease, AB Variant were purchased from the NINDS Human Genetic Repository at the Coriell Institute, 403 Haddon Avenue, Camden, N.J., 08103, USA. Fibroblasts or Chinese Hamster Ovary cells were grown in T75 culture flasks, treated for 7 days with compounds, trypsinized, centrifuged (180 g, 5 min), washed twice with 1×PBS, centrifuged again and were stained with 1 ml of 100 nM LysoTracker-green DND-26 (Invitrogen) in PBS (10 min, in dark). Following incubation, cells were centrifuged (800 g, 5 min), resuspended in 0.5 ml of FACS buffer (0.1% BSA, 0.02 M NaN3 in 1×PBS) and kept on ice for a maximum of 1 h prior to flow cytometric analysis (BD Biosciences FACSCanto II or Accuri C6 Plus). The cytometer was calibrated using Cytometer Setup and Tracking beads (BD), and compensation was performed using cells stained with Lysotracker or Propidium Iodide using BD FACSDiva software (BD) or BD Accuri C6 Plus software (BD).

[2] = tested on: Tay-Sachs, AB Variant patient-derived fibroblast cells; assay: Tay-Sachs AB human fibroblast cell assay: lysosomal volume by LysoTracker flow cytometry; format: cell-based; details: for LysoTracker signal relative to untreated (1.00): Tay-Sachs AB Variant fibroblasts, 1 mM, 7 days, n=3
Method: FIG. 2 is bar graph showing the effect of acetyl-leucine (referred to as IB1000) and acetyl-leucine-2,3,3,4-d4 (referred to as DIB1000) in a Tay-Sachs AB human fibroblast cell assay. Tay-Sachs, AB Variant patient-derived fibroblast cells were treated with 1 mM acetyl-leucine or acetyl-leucine-2,3,3,4-d4 to compare LysoTracker signals. Untreated; 1.00±0.02, n=3, Acetyl-leucine; 0.97±0.01, n=3, Acetyl-leucine-2,3,3,4-d4; 0.91±0.02, n=3. One-way ANOVA was conducted for statistical analysis. */**p<0.003/0.02. The technique applied in the present study is described in te Vruchte et al., J. Clin. Invest. 3:1320-1328 (2014). Briefly, human fibroblasts from patients with Tay-Sachs Disease, AB Variant were purchased from the NINDS Human Genetic Repository at the Coriell Institute, 403 Haddon Avenue, Camden, N.J., 08103, USA. Fibroblasts or Chinese Hamster Ovary cells were grown in T75 culture flasks, treated for 7 days with compounds, trypsinized, centrifuged (180 g, 5 min), washed twice with 1×PBS, centrifuged again and were stained with 1 ml of 100 nM LysoTracker-green DND-26 (Invitrogen) in PBS (10 min, in dark). Following incubation, cells were centrifuged (800 g, 5 min), resuspended in 0.5 ml of FACS buffer (0.1% BSA, 0.02 M NaN3 in 1×PBS) and kept on ice for a maximum of 1 h prior to flow cytometric analysis (BD Biosciences FACSCanto II or Accuri C6 Plus). The cytometer was calibrated using Cytometer Setup and Tracking beads (BD), and compensation was performed using cells stained with Lysotracker or Propidium Iodide using BD FACSDiva software (BD) or BD Accuri C6 Plus software (BD).

[3] = Pharmacokinetic study, plasma concentration after p.o. administration; format: in vivo, male BALB/c mice; details: for AUC(0-t) / Cmax: male, BALB/c, mouse, plasma, po, 100 mg/kg, male BALB/c mice; for ratio for AUClast, deuterated analyte/non-deuterated analyte / ratio for Cmax, deuterated analyte/non-deuterated analyte: mice
Method: Acetyl-leucine, acetyl-L-leucine, acetyl-leucine-2,3,3,4-d4 (1-rac), and acetyl-L-leucine-2,3,3,4-d4 (1) were administered to male BALB/c mice via the oral (p.o) route. Plasma and tissue samples were collected at predetermined time points and analysed using HR/MS.

[4] = plasma analyte after p.o. acetyl-L-leucine 100 mg/kg
[5] = plasma analyte after p.o. acetyl-leucine 100 mg/kg
[6] = deuterated or non-deuterated acetyl-L-leucine administered p.o. 100 mg/kg
[7] = deuterated or non-deuterated acetyl-leucine (racemate) administered p.o. 100 mg/kg
[8] = plasma analyte after p.o. acetyl-L-leucine-2,3,3,4-d4 (1) 100 mg/kg in saline
[9] = plasma analyte after p.o. acetyl-L-leucine-2,3,3,4-d4 (1) 100 mg/kg
[10] = plasma analyte after p.o. acetyl-leucine-2,3,3,4-d4 (1-rac) 100 mg/kg in saline
[11] = plasma analyte after p.o. acetyl-leucine-2,3,3,4-d4 (1-rac) 100 mg/kg

Row | Structure (SMILES) | LysoTracker fluorescence, fold change relative to untreated samples (normalised as 1.0) [1] [fold change] | LysoTracker signal relative to untreated (1.00) [2] | AUC(0-t) [3, 4] [ng·h/mL] | AUC(0-t) [3, 5] [ng·h/mL] | ratio for AUClast, deuterated analyte/non-deuterated analyte [3, 6] | ratio for Cmax, deuterated analyte/non-deuterated analyte [3, 6] | ratio for AUClast, deuterated analyte/non-deuterated analyte [3, 7] | ratio for Cmax, deuterated analyte/non-deuterated analyte [3, 7] | Cmax [3, 8] [ng/mL] | AUC(0-t) [3, 9] [ng·h/mL] | Cmax [3, 10] [ng/mL] | AUC(0-t) [3, 11] [ng·h/mL] | other results
1 | CC(=O)NC(CC(C)C)C(=O)O (racemic) [acetyl-leucine, N-acetyl-DL-leucine] | 0.79±0.05 | 0.97±0.01 | – | – | – | – | – | – | – | – | – | – | –
2 | [2H]C(C)(C)C([2H])([2H])[C@]([2H])(NC(C)=O)C(=O)O (racemic) [acetyl-leucine-2,3,3,4-d4, Acetyl-leucine-2,3,3,4-d4] | 0.45±0.03 | 0.91±0.02 | – | – | – | – | – | – | – | – | – | – | LysoTracker fluorescence level compared to acetyl-leucine ([1]; NPC CHO cell line, 1 mM vs 1 mM acetyl-leucine): significant reduction; LysoTracker fluorescence level compared to acetyl-leucine ([2]; Tay-Sachs AB Variant human fibroblast cell line, 1 mM vs 1 mM acetyl-leucine): significant reduction
3 | CC(=O)N[C@H](CC(C)C)C(=O)O [acetyl-D-leucine, N-acetyl-D-leucine, reference compound] | – | – | 573 | 57800 | – | – | – | – | – | – | – | – | –
4 | [2H]C(C)(C)C([2H])([2H])[C@@]([2H])(NC(C)=O)C(=O)O [acetyl-D-leucine-2,3,3,4-d4] | – | – | – | – | 5.50 | 7.40 | 1.72 | 0.59 | 3230 | 3150 | 50600 | 99600 | –
5 | CC(=O)N[C@@H](CC(C)C)C(=O)O [acetyl-L-leucine, N-acetyl-L-leucine, reference compound] | – | – | 11400 | 2600 | – | – | – | – | – | – | – | – | –
6 | [2H]C(C)(C)C([2H])([2H])[C@]([2H])(NC(C)=O)C(=O)O [acetyl-L-leucine-2,3,3,4-d4, Acetyl-L-leucine-2,3,3,4-d4] | – | – | – | – | 1.61 | 1.75 | 1.32 | 1.14 | 29300 | 18200 | 3880 | 3430 | –
